Results taken from patent US6653442B1, “Protegrins” (priority 1993, dated 2003).
Bridge positions count the residues as written; N and C are the ends. Peptide text beside a SMILES is read from it.

Assays:
[1] = Radial diffusion assay in 25 mM borate buffer (Table 4); type: cell-based; details: buffer (25 mM borate buffer, pH 7.4)
Procedure: Contact lens solutions are typically formulated with borate buffered physiological saline and may or may not contain EDTA in addition. Protegrins in the form of the synthetic PG-3 amide and synthetic PG acid were tested generally in the assay described in Example 1 wherein all underlay gels contain 25 mM borate buffer, pH […] tryptocase soy broth ([…] TSB powder) and […]. Additions included either 100 mM NaCl, 1 mM EDTA or a combination thereof. Other test compounds used as controls were the defensin NP-1 and lysozyme. Dose response curves were determined.

E. coli ML-35P = assay: Radial diffusion assay in agarose gels, E. coli; type: cell-based; details: in the presence of 100 mM NaCl
Procedure: Aliquots (66 μl) of each fraction were dried by vacuum centrifugation and resuspended in 6.6 μl of 0.01% acetic acid. […] The units of activity in the radial diffusion assay were measured as described; 10 units correspond to a 1 mm diameter clear zone around the sample well.
(§1) The radial diffusion assay in agarose gels described in Example 1 was also used to test the activity of the purified protegrins.
The antimicrobial activity of the linearalized forms was also compared with that of the native protegrins.
This form of protegrin was tested against E. coli, L. monocytogenes, C. albicans and other microbes in the absence and presence of protease and otherwise as described for the radiodiffusion assay in agarose gels set forth in Example 1.
As described in Example 1, 0.3 mg/ml tripticase soy broth powder and 1% agarose were used as well in the underlay agar. In some cases 100 mM NaCl or RPMI plus 2.5% normal human serum (NHS) was added to the agar.

Candida albicans = assay: Radial diffusion assay in 25 mM borate buffer, Candida albicans; type: cell-based
L. monocytogenes = assay: Radial diffusion assay in 25 mM borate buffer, L. monocytogenes; type: cell-based
C. albicans, strain 820 = type: cell-based, Candida albicans
Procedure: The units of activity in the radial diffusion assay were measured as described; 10 units correspond to a 1 mm diameter clear zone around the sample well.
as §1
Similarly, using C. albicans as a target organism, underlayers were prepared with 10 mM sodium phosphate with and without 10% normal human serum.

[2] = system: E. coli ML-35 (serum sensitive); assay: Underlay gel assay with and without normal human serum, E. coli ML-35; type: cell-based; details: 10 mM sodium phosphate buffer, pH 7.4

CC[C@H](C)[C@@H]1NC(=O)[C@H](CCCNC(=N)N)NC(=O)[C@@H]2CSSC[C@@H]3NC(=O)[C@H](C)NC(=O)[C@@H](NC(=O)[C@@H](NC(=O)[C@@H](N)C(C)C)C(C)C)CSSC[C@@H](C(=O)N[C@@H](CCCNC(=N)N)C(=O)N[C@@H](CCCNC(=N)N)C(=O)O)NC(=O)[C@H](CSSC[C@H](NC(=O)[C@H](CC(C)C)NC(=O)[C@H](C)NC(=O)[C@H](CCCNC(=N)N)NC(=O)[C@H](CCCNC(=N)N)NC3=O)C(=O)N[C@@H](CC(C)C)C(=O)N3CCC[C@H]3C(=O)N[C@@H](CCCNC(=N)N)C(=O)N[C@@H](CCC(=O)O)C(=O)N[C@@H](CCCNC(=N)N)C(=O)N[C@@H](CCCNC(=N)N)C(=O)N[C@@H](C)C(=O)NCC(=O)N[C@@H](Cc3ccccc3)C(=O)N2)NC(=O)[C@H](CC(C)C)NC(=O)[C@@H]2CCCN2C(=O)[C@H](Cc2c[nH]cn2)NC(=O)[C@H]([C@@H](C)CC)NC(=O)[C@H](CCCNC(=N)N)NC(=O)CNC(=O)[C@H](CCCNC(=N)N)NC1=O [NP-1, reference compound] (H-VVCACRRALCLPRERRAGFCRIRGRIHPLCCRR-OH; disulfide 3-31, 5-20, 10-30; N-terminus and C-terminus assumed)
ESTIMATED MINIMAL FUNGICIDAL CONCENTRATIONS [1]: 35.0 µg/mL
activity against E. coli in NaCl (FIG. 5b) (E. coli ML-35P): Neither NP-1 nor HNP-1 have this property
ESTIMATED MINIMAL FUNGICIDAL CONCENTRATIONS (Candida albicans; 25 mM borate buffer): 23.0 µg/mL
ESTIMATED MINIMAL FUNGICIDAL CONCENTRATIONS (Candida albicans; borate buffer + 120 mM NaCl): 60.0 µg/mL
ESTIMATED MINIMAL FUNGICIDAL CONCENTRATIONS (Candida albicans; borate buffer + EDTA & NaCl): 65.0 µg/mL
ESTIMATED MINIMAL BACTERICIDAL CONCENTRATIONS (L. monocytogenes; 25 mM borate buffer): 20.0 µg/mL
ESTIMATED MINIMAL BACTERICIDAL CONCENTRATIONS (L. monocytogenes; borate buffer + 120 mM NaCl): 11.0 µg/mL
ESTIMATED MINIMAL BACTERICIDAL CONCENTRATIONS (L. monocytogenes; borate buffer + EDTA & NaCl): 3.8 µg/mL
activity against Candida albicans in fetal calf serum (FIG. 5c) (C. albicans, strain 820; 90% fetal calf serum): lose their ability to inactivate C. albicans
activity against C. albicans in NaCl (FIG. 5a) (C. albicans, strain 820; in the presence of 100 mM NaCl): Neither NP-1 nor HNP-1 have this property

CC(C)C[C@H](NC(=O)[C@H](CCCNC(=N)N)NC(=O)CNC(=O)CNC(=O)[C@@H](N)CCCNC(=N)N)C(=O)N[C@H]1CSSC[C@@H](C(=O)N[C@H](C(=O)NCC(=O)N[C@@H](CCCNC(=N)N)C(N)=O)C(C)C)NC(=O)[C@H](C(C)C)NC(=O)[C@@H]2CSSC[C@H](NC(=O)[C@H](Cc3ccc(O)cc3)NC1=O)C(=O)N[C@@H](CCCNC(=N)N)C(=O)N[C@@H](CCCNC(=N)N)C(=O)N[C@@H](CCCNC(=N)N)C(=O)N[C@@H](Cc1ccccc1)C(=O)N2 [synthetic PG-1]
minimal bacteriocidal concentration ([2]; absence of serum): approximately 1.0 μg/ml
minimal bacteriocidal concentration ([2]; presence of […] normal human serum): about 0.1 μg/ml
